Test results published in ChEMBL document CHEMBL3045049, “Synthesis and antiviral activity of new 3-methyl-1,5-diphenyl-1H-pyrazole derivatives” (Med Chem Res, 2012).
Calls of active or inactive are those of the source. The rule behind the calls is not given here.

Legend:
Vero = experiment: Cytotoxicity against Chlorocebus aethiops (African green monkey) Vero cells after 24 hr; type: cell-based; conditions: chlorocebus sabaeus
Human alphaherpesvirus 1 = experiment: Antiviral activity against Human herpesvirus 1 infected African green monkey Vero cells after 66 hr by viral plaque reduction assay; type: functional; design: concentration or dose not given beside the values

With `COc1ccc(C2=NN(c3ccccc3)C(c3c(C)nn(-c4ccccc4)c3-c3ccccc3)C2)cc1` (centres undefined) the Activity (Vero) was “Toxic” and the Activity (Human alphaherpesvirus 1) was “inactive”.

With `Cc1nn(-c2ccccc2)c(-c2ccccc2)c1/C=C/C(=O)c1ccc(Br)cc1` the Activity (Human alphaherpesvirus 1) was 22%.

`Cc1nn(-c2ccccc2)c(-c2ccccc2)c1C1CC(c2ccc(N)cc2)=NN1` (centres undefined) was tested, and the Activity (Human alphaherpesvirus 1) was 10%.

`COc1ccc(C(=O)/C=C/c2c(C)nn(-c3ccccc3)c2-c2ccccc2)cc1` was tested, and the Activity (Vero) was “Toxic” and the Activity (Human alphaherpesvirus 1) was “inactive”.

`Cc1nn(-c2ccccc2)c(-c2ccccc2)c1C1CC(c2cccc(N)c2)=NN1` (centres undefined) gave an Activity (Human alphaherpesvirus 1) of 15%.

`Cc1ccc(C(=O)/C=C/c2c(C)nn(-c3ccccc3)c2-c2ccccc2)cc1` gave an Activity (Human alphaherpesvirus 1) of 10%.

Compound `Cc1nn(-c2ccccc2)c(-c2ccccc2)c1-c1cc(-c2ccc(Br)cc2)nc2nc(/C=C/C(=O)O)[nH]c(=O)c12` has an Activity (Human alphaherpesvirus 1) of 10%.

`Cc1nn(-c2ccccc2)c(-c2ccccc2)c1C1CC(c2cccc(N)c2)=NN1c1ccccc1` (centres undefined) was tested, and the Activity (Human alphaherpesvirus 1) was 11%.

`COc1ccc(OC)c(C2=NN(c3ccccc3)C(c3c(C)nn(-c4ccccc4)c3-c3ccccc3)C2)c1` (centres undefined) was tested, and the Activity (Vero) was “Toxic” and the Activity (Human alphaherpesvirus 1) was “inactive”.

With `CSc1cccc(Nc2nc(-c3ccc(C)cc3)cc(-c3c(C)nn(-c4ccccc4)c3-c3ccccc3)n2)c1` the Activity (Human alphaherpesvirus 1) was 52%.

In the case of `Cc1ccc(C2=NNC(c3c(C)nn(-c4ccccc4)c3-c3ccccc3)C2)cc1` (centres undefined), the Activity (Human alphaherpesvirus 1) is reported as 22%.

`Cc1ccc(C2=NOC(c3c(C)nn(-c4ccccc4)c3-c3ccccc3)C2)cc1` (centres undefined) was tested, and the Activity (Human alphaherpesvirus 1) was 53%.

For `COc1ccc(O)c(C2=NOC(c3c(C)nn(-c4ccccc4)c3-c3ccccc3)C2)c1` (centres undefined), the Activity (Vero) was “Toxic” and the Activity (Human alphaherpesvirus 1) was “inactive”.

Compound `Cc1nn(-c2ccccc2)c(-c2ccccc2)c1/C=C/C(=O)c1cccc(N)c1` has an Activity (Human alphaherpesvirus 1) of 10%.

`Cc1ccc(C2=NN(c3ccccc3)C(c3c(C)nn(-c4ccccc4)c3-c3ccccc3)C2)cc1` (centres undefined) was tested, and the Activity (Vero) was “Toxic” and the Activity (Human alphaherpesvirus 1) was “inactive”.

Work on `Cc1nn(-c2ccccc2)c(-c2ccccc2)c1-c1cc(-c2ccc(Br)cc2)nc(N2C(=O)c3ccccc3C2=O)c1C#N` yielded an Activity (Human alphaherpesvirus 1) of 22%.

`Cc1nn(-c2ccccc2)c(-c2ccccc2)c1C1CC(c2ccc(Br)cc2)=NN1` (centres undefined) gave an Activity (Human alphaherpesvirus 1) of 18%.

`Cc1nn(-c2ccccc2)c(-c2ccccc2)c1C1CC(c2ccc(N)cc2)=NO1` (centres undefined) was tested, and the Activity (Human alphaherpesvirus 1) was 10%.

`Cc1nn(-c2ccccc2)c(-c2ccccc2)c1C1CC(c2ccc(Br)cc2)=NO1` (centres undefined) was tested, and the Activity (Human alphaherpesvirus 1) was 10%.

`Nc1nc2c(ncn2COCCO)c(=O)[nH]1` [ACYCLOVIR] gave an Activity (Human alphaherpesvirus 1) of 100%.

`Cc1nn(-c2ccccc2)c(-c2ccccc2)c1/C=C/C(=O)c1ccc(N)cc1` was tested, and the Activity (Vero) was “Toxic” and the Activity (Human alphaherpesvirus 1) was “inactive”.

With `Cc1nn(-c2ccccc2)c(-c2ccccc2)c1C1CC(c2ccc(Br)cc2)=NN1c1ccccc1` (centres undefined) the Activity (Vero) was “Toxic” and the Activity (Human alphaherpesvirus 1) was “inactive”.

`Cc1nn(-c2ccccc2)c(-c2ccccc2)c1C1CC(c2ccc(N)cc2)=NN1c1ccccc1` (centres undefined) was tested, and the Activity (Vero) was “Toxic” and the Activity (Human alphaherpesvirus 1) was “inactive”.

For `COc1ccc(C2=NOC(c3c(C)nn(-c4ccccc4)c3-c3ccccc3)C2)cc1` (centres undefined), the Activity (Vero) was “Toxic” and the Activity (Human alphaherpesvirus 1) was “inactive”.

For `COc1ccc(C2=NNC(c3c(C)nn(-c4ccccc4)c3-c3ccccc3)C2)cc1` (centres undefined), the Activity (Human alphaherpesvirus 1) was 22%.

With `Cc1nn(-c2ccccc2)c(-c2ccccc2)c1-c1cc(-c2ccc(Br)cc2)[nH]c(=O)c1C#N` the Activity (Human alphaherpesvirus 1) was 52%.

With `COc1ccc(OC)c(C(=O)/C=C/c2c(C)nn(-c3ccccc3)c2-c2ccccc2)c1` the Activity (Human alphaherpesvirus 1) was 17%.

`Cc1nn(-c2ccccc2)c(-c2ccccc2)c1C1CC(c2cccc(N)c2)=NO1` (centres undefined) gave an Activity (Human alphaherpesvirus 1) of 22%.

Compound `Cc1nn(-c2ccccc2)c(-c2ccccc2)c1-c1cc(-c2ccc(Br)cc2)nc(N)c1C#N` has an Activity (Human alphaherpesvirus 1) of 51%.

In the case of `COc1ccc(OC)c(C2=NNC(c3c(C)nn(-c4ccccc4)c3-c3ccccc3)C2)c1` (centres undefined), the Activity (Human alphaherpesvirus 1) is reported as 22%.
